{"source": "patent US8173360B2", "about": "“Cell death inhibitor” (Takeda Pharmaceutical Company Limited, priority 2002, dated 2012)", "key": {"heme oxygenase-1": {"system": "heme oxygenase-1", "test": "Heme oxygenase-1 production-increasing activity (western blotting)", "format": "cell-based, rat", "settings": "for Increasing Rate of Production (heme oxygenase-1): 24 hours, without compound = 1", "protocol": "The plate was washed 3 times with Medium 199 medium to remove serum. Compound I was added to the plate, followed by incubation for 24 hours at 37° C. and 5% CO2. After completion of the incubation, the cardiomyocytes were washed once with PBS(−), and 100 μl of cell lysis buffer [10 mM Tris(hydroxymethyl)aminomethane, pH 7.4, 150 mM NaCl, 1 mM EDTA.2Na, 1 mM ethylene glycol-bis(β-aminoethylether]-N,N,N′,N′-tetraacetic acid, 0.5 mM (p-aminophenyl)methanesulfonyl fluoride hydrochloride, 200 μM sodium β-glycerophosphate n-hydrate, 20 mM NaF, 2 mM sodium diphosphate decahydrate, 10 μg/ml aprotinin, 10 μg/ml leupeptin, 1% Triton X-100, 0.5% Nonidet P40, 0.1% sodium dodesyl sulfate) was added thereto. After the cell debris was scraped from the plate using a cell scraper, the cell lysis buffer was recovered. The recovered cell lysis buffer was mixed with a sample buffer (Tris-SDS-ME Sample Buffer; manufactured by Daiichi Pure Chemicals Co., Ltd.) in an equal volume. The mixture was heat-treated at 95° C. for 5 minutes, followed by SDS polyacrylamide electrophoresis using Multigel (manufactured by Daiichi Pure Chemicals Co., Ltd.). Next, nitrocellulose membrane (Hybond-ECL; manufactured by Amersham Pharmacia Biotech) soaked in a blotting buffer [0.1 M Tris(hydroxymethyl)aminomethane, 0.192 M glycine, 20% ethanol] for at least 10 minutes, blotting filter paper, dialysis membrane and gel were set on Horize-Blot (manufactured by ATTO, Co.) and treated with 100 mA/gel (64 cm^2) for an hour to adsorb the protein in the gel onto the nitrocellulose membrane. Thereafter, the nitrocellulose membrane was soaked in a blocking buffer [TTBS buffer (20 mM Tris-HCl, pH 7.6, 0.137 M NaCl, 0.1% Tween-20) containing 5% skimmed milk powders] and stirred at room temperature for an hour for blocking. […] After completion of the reaction, the membrane was washed 3 times with TTBS buffer and the amount of protein was determined using a western blotting detection reagent (ECL+Plus; manufactured by Amersham) and Hyperfilm ECL (manufactured by Amersham). […]"}, "[1]": {"system": "genes under control of Antioxidant response element (ARE)", "test": "Gene expression analysis by DNA chip", "format": "cell-based, rat", "settings": "for Increasing Rate of Expression: 21 hours, without compound = 1", "protocol": "After gently stiffing, the plate was washed 3 times with Medium 199 medium to remove serum. […] The medium was then removed and total RNA was recovered using RNeasy Mini Kit (manufactured by QIAGEN). Using the total RNA, exhaustive analysis of gene expression was performed on GeneChip arrays for expression analysis (Rat Genome U34A Arrays: manufactured by AFFYMETRIX). The increasing rate of expression of each gene was expressed in terms of the expression level with the addition of the compound, when the expression level without addition of any compound was made 1."}, "[2]": {"system": "Human normal articular chondrocytes", "test": "Inhibitory activity against cell death of human articular chondrocytes induced by NO (MTT)", "format": "cell-based", "settings": "for Cell Death Inhibition Rate: 1.5 mM sodium nitroprusside 5 hours, mean ±SD", "protocol": "Human normal articular chondrocytes (Clonetics, Inc.) were proliferated in a growth medium for articular chondrocytes (CGM, Clonetics, Inc.) in monolayer culture. Then, the cells were suspended in 1.2% alginate-containing 155 mM NaCl solution in a density of 2.0×10^6 cells/ml, and beads having a 2 mm diameter were prepared using a syringe with a 22 gauge needle. The beads were incubated in a differentiation medium for articular chondrocytes (CDM, Clonetics, Inc.) charged in a 96-well round-bottomed plate (1 bead/well, manufactured by FALCON) for further 7 days. The medium was replaced by α-modified minimum essential medium containing Compound 1 (0.1 μM or 1 μM) and 10% fetal cow serum, followed by incubation for 48 hours and then for 5 hours in the co-presence of 1.5 mM sodium nitroprusside (NO generator, manufactured by Sigma). As control drugs, caspase 3 inhibitor (Z-DEVD-FMK (SEQ ID NO: 5), 100 μM, manufactured by R & D Systems, Inc.) and caspase 9 inhibitor (Z-LEHD-FMK (SEQ ID NO: 6), 100 μM, manufactured by R & D Systems, Inc.) were similarly monitored for their activities. After completion of the experiment, alginate was removed and the cell survival rate was determined by the MTT technique.\nIn the table, the numerical values indicate mean values (±SD) of the cell death inhibition rates as converted from the measurement data by the MTT technique. The cell survival rate after the addition of 1.5 mM sodium nitroprusside (without addition of either Compound 1 or control drug) was 31.9%."}, "[3]": {"system": "primary cardiomyocytes derived from rat neonates", "settings": "simvastatin 0.3 μM or atorvastatin 1 μM, 3 days", "protocol": "The primary cardiomyocytes derived from rat neonates obtained in EXPERIMENTAL EXAMPLE 2 were suspended in Medium 199 containing 10% fetal cow serum in 6×10^5 cells/ml, and the suspension was seeded on a 96-well plate in 0.1 mlwell, followed by incubation for a day in a CO2 incubator set at 37° C. and 5% CO2. After stirring with a micromixer (manufactured by Taiyo Kagaku Kogyo Co., Ltd.), the medium was replaced 3 times with serum-free Medium 199 to remove serum. […] Thereafter, fetal cow serum was added thereto to become 10%. After further incubation in a CO2 incubator set at 37° C. and 5% CO2 for about 17 hours, the viable cell count was determined using a cell count assay kit (manufactured by Dojin Chemical Laboratory) in which WST-8 was used as a chromogen, thereby to examine the inhibitory activity of myocardial cell death induced by the statin. The experiment described above was carried out independently in 3 runs. The viable cell count in each of the experimental groups was named the mean value (±SD) of the viable cell counts in each experimental group, when the viable cell count in the group with no statin added was made 1."}}}
{"smiles": "O=c1nc(-c2ccccn2)sc2ccccc12", "note": "[Compound 1, 2-(2-Pyridyl)-4H-1,3-benzothiazin-4-one]", "values": [{"measurement": "Increasing Rate of Production (heme oxygenase-1)", "setting": "heme oxygenase-1; 0.04 μM", "value": 1.6}, {"measurement": "Increasing Rate of Production (heme oxygenase-1)", "setting": "heme oxygenase-1; 0.4 μM", "value": 2.5}, {"measurement": "production amount of heme oxygenase-1", "setting": "heme oxygenase-1; statement in words", "value": "increases the production amount of heme oxygenase-1"}, {"measurement": "Increasing Rate of Expression", "setting": "[1]; Bilirunin-specific UDP-glucuronosyltransferase", "value": 5.2}, {"measurement": "Increasing Rate of Expression", "setting": "[1]; Gamma-glutamylcysteine synthetase", "value": 2.4}, {"measurement": "Increasing Rate of Expression", "setting": "[1]; Glutathione S-transferase Yb subunit", "value": 2.5}, {"measurement": "Increasing Rate of Expression", "setting": "[1]; Glutathione S-transferase Yc1 subunit", "value": 2.1}, {"measurement": "Increasing Rate of Expression", "setting": "[1]; Heme oxygenase-1", "value": 2.0}, {"measurement": "Increasing Rate of Expression", "setting": "[1]; Liver glutathione S-transferase Ya subunit", "value": 11.6}, {"measurement": "Increasing Rate of Expression", "setting": "[1]; Liver glutathione S-transferase Yc subunit", "value": 2.3}, {"measurement": "Increasing Rate of Expression", "setting": "[1]; NAD(P)H-menadione oxidereductase", "value": 2.8}, {"measurement": "Increasing Rate of Expression", "setting": "[1]; NAD(P)H: quinone reductase", "value": 9.4}, {"measurement": "Increasing Rate of Expression", "setting": "[1]; UDP-glucuronosyltransferase, exon 1", "value": 5.0}, {"measurement": "expression of the genes under control of Antioxidant response element (ARE)", "setting": "[1]; statement in words", "value": "enhances expression of the genes under control of Antioxidant response element (ARE)"}, {"measurement": "Cell Death Inhibition Rate", "setting": "[2]; 0.1 μM", "value": "44.7 ± 0.9"}, {"measurement": "Cell Death Inhibition Rate", "setting": "[2]; 1 μM", "value": "57.6 ± 7.0"}, {"measurement": "inhibitory activity against cell death of human articular chondrocytes induced by NO", "setting": "[2]; statement in words", "value": "has the inhibitory activity against the cell death of human articular chondrocytes induced by NO"}, {"measurement": "inhibition of myocardial cell death induced by statin", "setting": "[3]", "value": "exhibits the activity of inhibiting myocardial cell death induced by the HMG-CoA reductase inhibitor"}]}
